Data on nine compounds can be found in PMC7466059, “Synthesis and Ex Vivo Trans-Corneal Permeation of Penetratin Analogues as Ophthalmic Carriers: Preliminary Results” (Pharmaceutics, 2020).

A short description of data set [1]: Ex vivo trans-corneal permeation, Franz-type diffusion cells. Particulars: ex vivo porcine cornea, area 0.2 cm^2, 200 µL, 37 °C, 6 h, fluorescence 485/535 nm, mean ± sd. It counts as in vitro ADME, pig. The protocol:
(§1) Permeation experiments across freshly porcine cornea were performed following a method previously reported. In detail, transparent porcine corneas were isolated from fresh pig eyes (breed: Large White and Landrace; weight: 145–190 kg; age: 10–11 months; sex: female and male; Macello Annoni SpA, Busseto, Italy) and supported by glass Franz-type diffusion cells, having a permeation area of 0.2 cm^2. The epithelial side was in contact with the donor, i.e., 200 µL of aqueous solution containing a peptide: each concentration and solvent are indicated in Table 2. Donor concentrations were selected based on different solubility and analytical sensitivity (see paragraph 2.4 and Table S2). For some peptides, the solubilization was improved by dissolving the raw material using small amount of DMSO (final concentration less than 5% v/v), and then PBS or PBS+0.1% BSA were alternately added.
To fill the receptor compartment, around 4 mL of degassed PBS or PBS+0.1% BSA was used (see Table 2), being kept at 37 °C and maintained under magnetic stirring to avoid any boundary layer effect. The presence of 0.1% BSA aids in preventing peptides aggregation. Permeation experiments lasted 6 h, and for quantification purposes, 200 µL of the receiving solution were collected every hour and reintegrated with fresh medium. Each condition was replicated between 3 and 4 times, using cornea isolated from different animals.
Permeation samples were analysed without preliminary separation by fluorescence, using a Spark 10M microplate reader (Tecan Trading AG, Switzerland); excitation and emission wavelengths were 485 nm and 535 nm, respectively. Standard solutions were prepared in PBS pH 7.4 or in PBS containing BSA 0.1%. RSD% (relative standard deviation %) was lower than 10%, while ER% (relative error %) resulted lower than 15%.
The amount of CPP permeated across the cornea (nmol/cm^2) is plotted against time (hour): the slope of the regression line at steady state represents the trans-corneal flux J (nmol/cm^2 h). The apparent permeability coefficient Papp (cm/s) is then calculated as Equation (1): Papp = J/c(1) being c (µM) the concentration of the donor solution. Papp allows for a direct comparison among permeants studied using different donor concentrations.

Details of data set [2]: method as in PMID 24521351, PMID 28927928. Particulars: literature report; cited from earlier work.
A short description of data set [3]: Aqueous solubility / precipitation of donor solutions (observation). Type of data set: physicochemical. Particulars: for solubility in aqueous medium: fluorescein (FL) as cargo, not used in ex vivo permeation experiments; for solubilization of donor solution: 250 µM, PBS pH 7.4. The protocol: as §1
We have also analysed if the sequence reciprocity (GG vs. R) plays a role in the diffusivity of the peptide across the cornea and we found no difference between most of the paired sequences, namely PNT-GG 2 vs. PNT-R 4, PNT-GG 3 vs. PNT-R 3, PNT-GG 4 vs. PNT-R 2, PNT-GG 5 vs. PNT-R 1 (Figure 3b). This confirms that the sequence is only one of the factors affecting the translocation: in fact, even CPP concentration, type of cells, and cargo can strongly influence CPP final behavior/activity. […] Differently, the presence of FAM, a more hydrophilic fluorescent probe, allowed for aqueous solutions ranging in concentration from 25 to 250 µM (Table 2).

The conditions of data set [4]: FAM alone, trans-corneal; cited from earlier work. An excerpt: Finally, also the propensity of CPPs to enter corneal epithelium and endothelium cells should be considered.
The mark [5] stands for this setting: epithelial side to donor, donor 100 µM, donor and receiving solutions PBS pH 7.4, hourly sampling, n = 3-4.
[6] abbreviates: donor 25 µM, donor and receiving solutions PBS pH 7.4, n = 4.

Read-outs that look alike come from different tables or passages of the source. Peptide text beside a SMILES is read from it. * marks the point of attachment. 5FAM = O=C1OC2(c3ccc(O)cc3Oc3cc(O)ccc32)c2ccc(C(=O)*)cc21

Turning to `CC[C@H](C)[C@H](NC(=O)[C@H](CCCCN)NC(=O)[C@@H](NC(=O)[C@H](CCC(N)=O)NC(=O)[C@H](CCCNC(=N)N)NC(=O)c1ccc2c(c1)C(=O)OC21c2ccc(O)cc2Oc2cc(O)ccc21)[C@@H](C)CC)C(=O)N[C@@H](Cc1c[nH]c2ccccc12)C(=O)N[C@@H](Cc1ccccc1)C(=O)N[C@@H](CCC(N)=O)C(=O)N[C@@H](CC(N)=O)C(=O)N[C@@H](CCCNC(=N)N)C(=O)N[C@@H](CCCNC(=N)N)C(=O)N[C@@H](CCSC)C(=O)N[C@@H](CCCCN)C(=O)N[C@@H](Cc1c[nH]c2ccccc12)C(=O)N[C@@H](CCCCN)C(=O)N[C@@H](CCCCN)C(N)=O` [reference compound], in data set [1] (setting [5]), the “Papp (apparent permeability coefficient)” value is on record as 4.54 ± 2.01 10^−6 cm/s. For the same compound, the ocular toxicity result in data set [2] is listed as “lacking in ocular toxicity”. On to “FL-GG-KKWKMRRNQFWIKIQR [PNT-R-FL, fluorescein-GG-labelled reversed penetratin, C-terminal amide]”, for which the “solubility in aqueous medium” value in data set [3] is recorded as “poorly soluble”. For the compound `CC[C@H](C)[C@H](NC(=O)[C@H](CCCCN)NC(=O)[C@@H](NC(=O)[C@H](Cc1c[nH]c2ccccc12)NC(=O)[C@H](Cc1ccccc1)NC(=O)[C@H](CCC(N)=O)NC(=O)[C@H](CC(N)=O)NC(=O)[C@H](CCCNC(=N)N)NC(=O)[C@H](CCCNC(=N)N)NC(=O)[C@H](CCSC)NC(=O)[C@H](CCCCN)NC(=O)[C@H](Cc1c[nH]c2ccccc12)NC(=O)[C@H](CCCCN)NC(=O)[C@H](CCCCN)NC(=O)CNC(=O)CNC(=O)c1ccc2c(c1)C(=O)OC21c2ccc(O)cc2Oc2cc(O)ccc21)[C@@H](C)CC)C(=O)N[C@@H](CCC(N)=O)C(=O)N[C@@H](CCCNC(=N)N)C(N)=O` [PNT-R] (5FAM-GGKKWKMRRNQFWIKIQR-NH2), in data set [1] (setting [6]), the “Papp (apparent permeability coefficient)” value is reported as 7.08 ± 6.66 × 10^−6 cm/s. For the same compound, in data set [3], the “solubilization of donor solution” value is reported as “complete solubilization”. Consider “FL-GG-WKMRRNQF [PNT-R-4-FL, fluorescein-GG-labelled analogue of PNT-R 4, C-terminal amide]”, for which the “solubility in aqueous medium” value in data set [3] is “poorly soluble”. On to `CC[C@H](C)[C@H](NC(=O)[C@H](CCCCN)NC(=O)[C@@H](NC(=O)[C@H](CCC(N)=O)NC(=O)[C@H](CCCNC(=N)N)NC(=O)CNC(=O)CNC(=O)c1ccc2c(c1)C(=O)OC21c2ccc(O)cc2Oc2cc(O)ccc21)[C@@H](C)CC)C(=O)N[C@@H](Cc1c[nH]c2ccccc12)C(=O)N[C@@H](Cc1ccccc1)C(=O)N[C@@H](CCC(N)=O)C(=O)N[C@@H](CC(N)=O)C(=O)N[C@@H](CCCNC(=N)N)C(=O)N[C@@H](CCCNC(=N)N)C(=O)N[C@@H](CCSC)C(=O)N[C@@H](CCCCN)C(=O)N[C@@H](Cc1c[nH]c2ccccc12)C(=O)N[C@@H](CCCCN)C(=O)N[C@@H](CCCCN)C(N)=O` [PNT-GG], for which, in data set [1] (setting [6]), the “Papp (apparent permeability coefficient)” value is recorded as 4.41 ± 2.93 × 10^−6 cm/s. For the same compound, the “solubilization of donor solution” value in data set [3] was “complete solubilization”.

Regarding `CSCC[C@H](NC(=O)[C@H](CCCNC(=N)N)NC(=O)[C@H](CCCNC(=N)N)NC(=O)[C@H](CC(N)=O)NC(=O)CNC(=O)CNC(=O)c1ccc2c(c1)C(=O)OC21c2ccc(O)cc2Oc2cc(O)ccc21)C(=O)N[C@@H](CCCCN)C(=O)N[C@@H](Cc1c[nH]c2ccccc12)C(=O)N[C@@H](CCCCN)C(=O)N[C@@H](CCCCN)C(N)=O` [PNT-GG 1] (5FAM-GGNRRMKWKK-NH2), the “Papp (apparent permeability coefficient)” value in data set [1] (setting [5]) is 1.33 ± 0.11 × 10^−6 cm/s. Take 5(6)-Carboxyfluorescein [FAM]: in data set [4], the “Papp (apparent permeability coefficient)” value is listed as 0.29 ± 0.08 × 10^−6 cm/s. Regarding `CC[C@H](C)[C@H](NC(=O)CNC(=O)CNC(=O)c1ccc2c(c1)C(=O)OC21c2ccc(O)cc2Oc2cc(O)ccc21)C(=O)N[C@@H](CCCCN)C(=O)N[C@H](C(=O)N[C@@H](Cc1c[nH]c2ccccc12)C(=O)N[C@@H](Cc1ccccc1)C(=O)N[C@@H](CCC(N)=O)C(=O)N[C@@H](CC(N)=O)C(=O)N[C@@H](CCCNC(=N)N)C(N)=O)[C@@H](C)CC` [PNT-GG 4] (5FAM-GGIKIWFQNR-NH2), the “Papp (apparent permeability coefficient)” value in data set [1] (donor 100 µM, donor and receiving solutions PBS+BSA 0.1% pH 7.4, n = 3) is 0.34 ± 0.14 × 10^−6 cm/s. Regarding `CSCC[C@H](NC(=O)[C@H](CCCCN)NC(=O)[C@H](Cc1c[nH]c2ccccc12)NC(=O)CNC(=O)CNC(=O)c1ccc2c(c1)C(=O)OC21c2ccc(O)cc2Oc2cc(O)ccc21)C(=O)N[C@@H](CCCNC(=N)N)C(=O)N[C@@H](CCCNC(=N)N)C(=O)N[C@@H](CC(N)=O)C(=O)N[C@@H](CCC(N)=O)C(=O)N[C@@H](Cc1ccccc1)C(N)=O` [PNT-R 4] (5FAM-GGWKMRRNQF-NH2), the “Papp (apparent permeability coefficient)” value in data set [1] (donor 250 µM, donor and receiving solutions PBS pH 7.4, n = 3-4) is listed as 0.13 ± 0.07 × 10^−6 cm/s.
